Columns and labels:
[1] = test system: ALOMY; assay: Post-emergence herbicidal action against ALOMY; type: in vivo, Alopecurus myosuroides; details: application rate 80 g/ha, rated visually after about 3 weeks
Outline: (§1)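 Greenhouse post-emergence test: compound sprayed onto green plant parts at one-leaf stage as WP or EC preparation with 0.5% additive, water rate 600 l/ha. Percent activity scored by eye after roughly 3 weeks, where 0% matches controls and 100% means death.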

[2] = test system: AVEFA; assay: Post-emergence herbicidal action against AVEFA; type: in vivo, Avena fatua; details: application rate 80 g/ha, rated visually after about 3 weeks
Outline: as §1

[3] = test system: ECHCG; assay: Post-emergence herbicidal action against ECHCG; type: in vivo, Echinochloa crus-galli; details: application rate 80 g/ha, rated visually after about 3 weeks
Outline: as §1

[4] = test system: LOLRI; assay: Post-emergence herbicidal action against LOLRI; type: in vivo, Lolium rigidum; details: application rate 80 g/ha, rated visually after about 3 weeks
Outline: as §1

[5] = test system: SETVI; assay: Post-emergence herbicidal action against SETVI; type: in vivo, Setaria viridis; details: application rate 80 g/ha, rated visually after about 3 weeks
Outline: as §1

[6] = test system: ABUTH; assay: Post-emergence herbicidal action against ABUTH; type: in vivo, Abutilon theophrasti; details: application rate 80 g/ha, rated visually about 3 weeks after treatment
Outline: as §1

[7] = test system: AMARE; assay: Post-emergence herbicidal action against AMARE; type: in vivo, Amaranthus retroflexus; details: application rate 80 g/ha, rated visually about 3 weeks after treatment
Outline: as §1

[8] = test system: MATIN; assay: Post-emergence herbicidal action against MATIN; type: in vivo, Matricaria inodora; details: application rate 80 g/ha, rated visually about 3 weeks after treatment
Outline: as §1

[9] = test system: PHBPU; assay: Post-emergence herbicidal action against PHBPU; type: in vivo, Pharbitis purpurea; details: application rate 80 g/ha, rated visually about 3 weeks after treatment
Outline: as §1

[10] = test system: POLCO; assay: Post-emergence herbicidal action against POLCO; type: in vivo, Polygonum convolvulus; details: application rate 80 g/ha, rated visually about 3 weeks after treatment
Outline: as §1

[11] = test system: STEME; assay: Post-emergence herbicidal action against STEME; type: in vivo, Stellaria media; details: application rate 80 g/ha, rated visually about 3 weeks after treatment
Outline: as §1

[12] = test system: VIOTR; assay: Post-emergence herbicidal action against VIOTR; type: in vivo, Viola tricolor; details: application rate 80 g/ha, rated visually about 3 weeks after treatment
Outline: as §1

[13] = test system: VERPE; assay: Post-emergence herbicidal action against VERPE; type: in vivo, Veronica persica; details: application rate 80 g/ha
Outline: as §1

[14] = test system: HORMU; assay: Post-emergence herbicidal action against HORMU; type: in vivo, Hordeum murinum; details: application rate 80 g/ha
Outline: as §1

| SMILES | Herbicidal action against [%] ALOMY [1] [%] | Herbicidal action against [%] AVEFA [2] [%] | Herbicidal action against [%] ECHCG [3] [%] | Herbicidal action against [%] LOLRI [4] [%] | Herbicidal action against [%] SETVI [5] [%] | Herbicidal action against [%] ABUTH [6] [%] | Herbicidal action against [%] AMARE [7] [%] | Herbicidal action against [%] MATIN [8] [%] | Herbicidal action against [%] PHBPU [9] [%] | Herbicidal action against [%] POLCO [10] [%] | Herbicidal action against [%] STEME [11] [%] | Herbicidal action against [%] VIOTR [12] [%] | Herbicidal action against [%] VERPE [13] [%] | Herbicidal action against [%] HORMU [14] [%] |
| --- | --- | --- | --- | --- | --- | --- | --- | --- | --- | --- | --- | --- | --- | --- |
| O=C(OCC(F)(F)F)C1C=CC(NC(=O)C2(C(F)(F)F)CC(c3cc(F)cc(F)c3)=NO2)C1 (mixture of isomers) [Example I-068] | 90 | 100 | 90 | 90 | 90 | 90 | 80 | 90 | 80 | 90 | 90 | 90 | 80 | 90 |
| O=C(OCc1ccccc1)C1C=CC(NC(=O)C2(C(F)(F)F)CC(c3cc(F)cc(F)c3)=NO2)C1 (mixture of isomers) [Example I-065] | 90 | 90 | 90 | 90 | 90 | 80 | 80 | 80 | 80 | 90 | 90 | 90 | 80 | 90 |
| COCCOC(=O)[C@@H]1C=C[C@H](NC(=O)[C@@]2(C(F)(F)F)CC(c3cc(F)cc(F)c3)=NO2)C1 [Example I-076] | 100 | 100 | 90 | 100 | 90 | 80 | 90 | 80 | 80 | 90 | 90 | 80 | 80 | 80 |
| C=CC1(C(=O)NC2C=CC(C(=O)O)C2)CC(c2cc(F)cc(F)c2)=NO1 (mixture of isomers) [Example I-037] | 90 | 90 | 90 | 90 | 90 | 90 | 90 | 80 | 80 | 90 | 90 | 90 | 90 | 90 |
| COC(=O)[C@@H]1C=C[C@H](NC(=O)C2(C(F)(F)F)CC(c3cc(F)cc(C#N)c3)=NO2)C1 (single isomer, unassigned) [Example I-098] | 100 | 100 | 90 | 90 | 80 | 80 | 80 | 80 | 80 | 80 | 90 | 80 | 80 | 90 |
| O=C(OCCCl)C1C=CC(NC(=O)C2(C(F)(F)F)CC(c3cc(F)cc(F)c3)=NO2)C1 (mixture of isomers) [Example I-067] | 90 | 100 | 90 | 90 | 90 | 80 | 80 | 80 | 80 | 90 | 90 | 80 | 80 | 90 |
| COCCOC(=O)[C@@H]1C=C[C@H](NC(=O)[C@@]2(C)CC(c3cc(F)cc(F)c3)=NO2)C1 [Example I-092] | 90 | 90 | 80 | 90 | 80 | 90 | 90 | 90 | 80 | 80 | 90 | 80 | 90 | 100 |
| COC(=O)[C@H]1C=C[C@H](NC(=O)[C@@]2(C(F)(F)F)CC(c3cc(F)cc(F)c3)=NO2)C1 [Example I-062] | 100 | 100 | 90 | 90 | 80 | 80 | 80 | 80 | 80 | 80 | 80 | 80 | 90 | 100 |
| COC(=O)C1C=CC(NC(=O)C2(C(F)(F)F)CC(c3cc(F)cc(F)c3)=NO2)C1 (mixture of isomers) [Example I-063] | 90 | 100 | 90 | 100 | 90 | 90 | 90 | 90 | 80 | 90 | 90 | 80 | 80 | 90 |
| CC(C)OC(=O)C1C=CC(NC(=O)C2(C(F)(F)F)CC(c3cc(F)cc(F)c3)=NO2)C1 (mixture of isomers) [Example I-064] | 90 | 100 | 90 | 100 | 90 | 80 | 90 | 90 | 80 | 90 | 80 | 80 | 80 | 90 |
| O=C(O)C1C=CC(NC(=O)C2(C3CC3)CC(c3cc(F)cc(F)c3)=NO2)C1 (stereo not drawn) [Example I-094] | 100 | 90 | 90 | 90 | 80 | 90 | 90 | 80 | 90 | 90 | 90 | 90 | 90 | 90 |
| CCOCCOC(=O)[C@@H]1C=C[C@H](NC(=O)[C@@]2(C)CC(c3cc(F)cc(F)c3)=NO2)C1 [Example I-093] | 100 | 100 | 100 | 100 | 80 | 80 | 80 | 90 | 80 | 90 | 80 | 80 | 80 | 100 |

— patent US12319664B2, “Herbicidally active 3-phenylisoxazoline-5-carboxamides of cyclopentenylcarboxylic acid derivatives” (Bayer Aktiengesellschaft, priority 2018, dated 2025)
